{"source": "paper PMC7215781", "about": "(International Journal of Molecular Sciences, 2020)", "biological_target": "T1, purified Na,K-ATPase from lamb kidney (α1) (Ovis aries, UniProt P04074)", "T1 construct": "gene ATP1A1; native enzyme purified from lamb kidney (gift of W. Ball); with Sodium/potassium-transporting ATPase subunit beta-1", "assay": "coupled pyruvate kinase/lactate dehydrogenase ATPase assay, NADH absorbance at […] nm, Hill fit", "format": "biochemical", "conditions": "inhibition; 3 h incubation in K+-free solution; 5 mM ATP, 100 mM NaCl, 10 mM MgCl2; pH 7.3; 37 °C"}
{"smiles": "C[C@@H]1O[C@@H](O[C@H]2C[C@@H](O)[C@]3(CO)[C@H]4[C@H](O)C[C@]5(C)[C@@H](C6=CC(=O)OC6)CC[C@]5(O)[C@@H]4CC[C@]3(O)C2)[C@H](O)[C@H](O)[C@H]1O", "note": "[ouabain]", "values": [{"measurement": "K0.5", "result": "157 ± 7", "unit": "nM"}]}
